Experimental data from patent US20250195478A1, “DUAL INHIBITORS OF VISTA AND PD-1 PATHWAYS” (Aurigene Oncology Limited, priority 2016, published 2025).

What was measured:
[1] = target: T1, Recombinant mouse PD-L1 (Mus musculus, UniProt Q9EP73); assay: Rescue of mouse splenocyte proliferation in the presence of recombinant PD-L1 (CFSE proliferation assay); assay type: cell-based; conditions: 100 nM compound; anti-CD3/CD28 stimulated mouse splenocytes + PD-L1; 72 h; stimulated splenocytes = 100%; read-out: PDL1 (rescue of proliferation @ 100 nM)
T1 construct: Fc (Fc chimera); purchased R&D Systems 1019-B7-100
T1 sequence (Q9EP73 19-238 limits assumed): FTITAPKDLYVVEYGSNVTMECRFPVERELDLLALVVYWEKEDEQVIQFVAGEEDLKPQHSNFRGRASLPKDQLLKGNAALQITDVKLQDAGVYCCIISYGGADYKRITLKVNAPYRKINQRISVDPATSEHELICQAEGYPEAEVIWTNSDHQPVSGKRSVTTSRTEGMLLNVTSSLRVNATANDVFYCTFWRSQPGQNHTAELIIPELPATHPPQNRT
Description: Example 1: Rescue of Mouse Splenocyte Proliferation in the Presence of Recombinant PD-L1/PD-L2
Recombinant mouse PD-L1 (rm-PDL-1, cat no: 1019-B7-100; R&D Systems) were used as the source of PD-L1.
Mouse splenocytes harvested from 6-8 weeks old C57 BL6 mice; RPMI 1640 (GIBCO, Cat #11875); DMEM with high glucose (GIBCO, Cat #D6429); Fetal Bovine Serum [Hyclone, Cat #SH30071.03]; Penicillin (10000unit/mL)-Streptomycin (10,000 μg/mL) Liquid (GIBCO, Cat #15140-122); MEM Sodium Pyruvate solution 100 mM (100×), Liquid (GIBCO, Cat #11360); Nonessential amino acid (GIBCO, Cat #11140); L-Glutamine (GIBCO, Cat #25030); Anti-CD3 antibody (eBiosciences-16-0032); Anti-CD28 antibody (eBiosciences-16-0281); ACK lysis buffer (1mL) (GIBCO, Cat #-A10492); Histopaque (density-1.083 gm/mL) (SIGMA 10831); Trypan blue solution (SIGMA-T8154); 2 mL Norm Ject Luer Lock syringe-(Sigma 2014-12); 40 μm nylon cell strainer (BD FALCON 35230); Hemacytometer (Bright line-SIGMA Z359629); FACS Buffer (PBS/0.1% BSA): Phosphate Buffered Saline (PBS) pH 7.2 (HiMedia TS1006) with 0.1% Bovine Serum Albumin (BSA) (SIGMA A7050) and sodium azide (SIGMA 08591); 5 mM stock solution of CFSE: CFSE stock solution was prepared by diluting lyophilized CFSE with 180 μL of Dimethyl sulfoxide (DMSO C2H6SO, SIGMA-D-5879) and aliquoted in to tubes for further use. Working concentrations were titrated from 10 μM to 1 μM. (eBioscience-650850-85); 0.05% Trypsin and 0.02% EDTA (SIGMA 59417C); 96-well format ELISA plates (Corning CLS3390); BD FACS caliber (E6016);
Recombinant mouse B7-H1/PDL1 Fc Chimera, (rm-PD-L1 cat no: 1019-B7-100).
Splenocytes harvested in a 50 mL falcon tube by mashing mouse spleen in a 40 μm cell strainer were further treated with 1 mL ACK lysis buffer for 5 min at room temperature.
After washing with 9 mL of RPMI complete media, cells were re-suspended in 3 mL of 1×PBS in a 15 mL tube. 3 mL of Histopaque was added carefully to the bottom of the tube without disturbing overlaying splenocyte suspension. After centrifuging at 800×g for 20 min at room temperature, the opaque layer of splenocytes was collected carefully without disturbing/mixing the layers. Splenocytes were washed twice with cold 1×PBS followed by total cell counting using Trypan Blue exclusion method and used further for cell based assays.
Splenocytes were cultured in RPMI complete media (RPMI +10% fetal bovine serum+1 mM sodium pyruvate+10,000units/mL penicillin and 10,000 μg/mL streptomycin) and maintained in a CO2 incubator with 5% CO2 at 37° C.
CFSE is a dye that passively diffuses into cells and binds to intracellular proteins. 1×10^6 cells/mL of harvested splenocytes were treated with 5 μM of CFSE in pre-warmed 1×PBS/0.1% BSA solution for 10 min at 37° C. Excess CFSE was quenched using 5 volumes of ice-cold culture media to the cells and incubated on ice for 5 min. CFSE labelled splenocytes were further given three washes with ice cold complete RPMI media. CFSE labelled 1×10^5 splenocytes added to wells containing either MDA-MB231 cells (1×10^5 cells cultured in high glucose DMEM medium) or recombinant […] PDL-1 (100 ng/mL) and test compounds. Splenocytes were stimulated with anti-mouse CD3 and anti-mouse CD28 antibody (lug/mL each), and the culture was further incubated for 72 h at 37° C. with 5% CO2. Cells were harvested and washed thrice with ice cold FACS buffer and % proliferation was analysed by flow cytometry with 488 nm excitation and 521 nm emission filters.
Percent splenocyte proliferation was analysed using cell quest FACS program and percent rescue of splenocyte proliferation by compound was estimated after deduction of % background proliferation value and normalising to % stimulated splenocyte proliferation (positive control) as 100%.
Stimulated splenocytes: Splenocytes+anti-CD3/CD28 stimulation
Background proliferation: Splenocytes+anti-CD3/CD28+PD-L1
Compound proliferation: Splenocytes+anti-CD3/CD28+PD-L1+Compound […]

[2] = target: T2, recombinant human VISTA (Homo sapiens, UniProt Q9H7M9); assay: Human PBMC IFN-γ release assay in the presence of recombinant human VISTA; assay type: cell-based; conditions: 100 nM compound, plate-coated VISTA + anti-CD3, anti-CD28, 72 h, ELISA
T2 construct: Fc (Fc chimera); purchased R&D Systems 7126-B7
T2 sequence (Q9H7M9 with tags, fused parts or gaps limits assumed): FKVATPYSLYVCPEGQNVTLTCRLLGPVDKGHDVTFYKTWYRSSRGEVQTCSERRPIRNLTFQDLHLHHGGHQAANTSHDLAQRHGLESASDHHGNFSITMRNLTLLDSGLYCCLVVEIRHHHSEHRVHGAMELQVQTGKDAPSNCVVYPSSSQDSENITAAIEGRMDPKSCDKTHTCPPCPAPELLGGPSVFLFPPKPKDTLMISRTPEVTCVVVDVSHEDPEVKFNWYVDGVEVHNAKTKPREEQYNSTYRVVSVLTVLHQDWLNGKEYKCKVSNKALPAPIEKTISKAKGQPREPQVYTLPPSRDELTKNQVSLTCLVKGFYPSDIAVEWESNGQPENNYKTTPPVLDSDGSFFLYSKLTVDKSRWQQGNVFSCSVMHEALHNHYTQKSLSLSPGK
Description: Example 2: Rescue of Mouse Splenocyte Proliferation in the Presence of Recombinant VISTA
Vehicle: Milli Q water; RPMI 1640 (GIBCO, Cat #11875); Fetal Bovine Serum [Hyclone, Cat #SH30071.03]; Penicilin (10000 unit/ml)-Streptomycin (10,000 μg/ml) liquid (GIBCO, Cat #15140-122); MEM Sodium Pyruvate solution 100 mM (100×), Liquid (GIBCO, Cat #11360); Nonessential amino acid (GIBCO, Cat #11140); L-Glutamine (GIBCO, Cat #25030); Recombinant human VISTA (rhGi24 VISTA/B7-H5 Fc chimera (R&D systems, cat no: 7126-B7); Anti-h/m Gi24/VISTA/B7-H5 purified mouse monoclonal IgG2B (R&D systems, cat no: MAB7126); Mouse IgG2B isotype control (R&D Systems cat no: MAB 004); Anti human-CD3 antibody (eBiosciences-16-0039); Anti human-CD28 antibody (eBiosciences-16-0289); Histopaque (density-1.077 gm/ml) (SIGMA 1077); Trypan Blue solution (SIGMA-T8154); Hemacytometer (Bright line-SIGMA Z359629); FACS Buffer containing Phosphate Buffered Saline (PBS) pH 7.2; (HiMedia TS1006) with 0.1% Bovine Serum Albumin (BSA) (SIGMA A7050) and sodium azide (SIGMA 08591); 96-well format ELISA plates (Corning 3599); 96-well format ELISA plates (Corning 3361); BD FACS caliber (E6016); Centrifuge (Eppendorf 5810 R); Human IFN-γ Duo set ELISA kit (R&D Systems; cat no: DY-285).
96-well cell culture plates were pre-coated with recombinant human VISTA (2.5 μg/ml) and anti-human CD3 (2.5 μg/ml), and stored at 4° C. overnight. Anti-human VISTA and isotype control antibodies were either coated along with the VISTA or incubated for 30 min next day before addition of cells. On the next day, plates were washed with 1×PBS and then incubated with test compounds for 30 min. Isolated PBMC (0.1×10^6 cells/well) and anti-human CD28 antibodies (lug/ml) were added to the wells. The culture was further incubated for 72 h at 37° C. with 5% CO2. After 72 h of incubation the cell culture supernatants were collected after brief centrifugation at 200 g×5 min at 4° C. and processed for human IFN-γ measurement by ELISA following manufacturer's protocol (R&D Systems; DY-285).
In brief, 96-well ELISA plates were coated with 100 μl/well of capture antibody in coating buffer and incubated overnight at 4° C. Plates were washed five times with wash buffer and further blocked with 200 μl of 1× assay diluents for 1 hr at RT. Following wash step, 100 μl of cell culture supernatants were added to wells and further incubated for 2 hr at RT. Appropriate standards were also included. After wash step, plate was incubated for one hour with 100 μl/well of detection antibody. The wash step was repeated and the plate was incubated for 30 min with 100 μl/well of Avidin-HRP. The plate was washed four times with wash buffer and subsequently incubated for 15 min with 100 μl/well of substrate solution. 50 μl of stop solution was added to each well and the plate was read at 450 nm using Gen5 ver 2.05. Delta OD values were used for calculating the concentrations. The absorbance values were plotted against the standards and the concentration of IFN-γ was determined using GraphPad Prism software. Each experimental condition was carried out in triplicates.
The percent rescue of IFN-γ release of the selected compounds of present invention are set forth below wherein “A” refers to compounds having more than 70% rescue of IFN-γ release, “B” refers to compounds having rescue of IFN-γ release ranges from 50% to 69.9% and “C” refers to compounds having less than 50% rescue of IFN-γ release.

Row | SMILES | activation at 0.1 µM [1] [%] | VISTA (rescue of IFN γ release @ 100 nM) [2]
1 | CC(O)[C@H](NC(=O)N[C@@H](CC(=O)O)c1nc([C@@H](N)CCCNC(=N)N)no1)C(=O)O (stereo partly shown) [Compound 15] | 70 | C (less than 50% rescue of IFN-γ release)
2 | CC(O)[C@@H](NC(=O)N[C@@H](CC(N)=O)c1nc([C@H](N)CO)no1)C(=O)O (stereo partly shown) [Compound 23] | 72 | A (more than 70% rescue of IFN-γ release)
3 | CC(O)[C@H](NC(=O)N[C@@H](CC(N)=O)c1nc([C@@H](N)C(C)O)no1)C(=O)O (stereo partly shown) [Compound 2] | 75 | A (more than 70% rescue of IFN-γ release)
4 | CC(O)[C@H](NC(=O)N[C@@H](CC(N)=O)c1nc([C@@H](N)CCCCN)no1)C(=O)O (stereo partly shown) [Compound 7] | 96 | C (less than 50% rescue of IFN-γ release)
5 | CC(O)[C@H](NC(=O)N[C@@H](Cc1cc2ccccc2[nH]1)c1nc([C@@H](N)CO)no1)C(=O)O (stereo partly shown) [Compound 8] | 60 | B (rescue of IFN-γ release ranges from 50% to 69.9%)
6 | N[C@@H](CO)c1noc([C@H](CO)NC(=O)N[C@@H](CO)C(=O)O)n1 [Compound 13] |  | B (rescue of IFN-γ release ranges from 50% to 69.9%)
7 | CC(O)[C@@H](NC(=O)N[C@H](CC(N)=O)c1nc([C@H](N)CO)no1)C(=O)O (stereo partly shown) [Compound 22] | 83 | A (more than 70% rescue of IFN-γ release)
8 | CCC(C)[C@H](NC(=O)N[C@@H](CCC(=O)O)C(=O)O)c1nc([C@@H](N)CCC(N)=O)no1 (stereo partly shown) [Compound 11] |  | C (less than 50% rescue of IFN-γ release)
9 | CCCCCCNC(=O)CC[C@H](NC(=O)N[C@H](C(=O)O)C(C)O)c1nc([C@@H](N)CO)no1 (stereo partly shown) [Compound 18] |  | C (less than 50% rescue of IFN-γ release)
10 | CC(=O)NCCCC[C@@H](NC(=O)N[C@H](C(=O)O)C(C)O)c1nc([C@@H](N)CO)no1 (stereo partly shown) [Compound 17] |  | C (less than 50% rescue of IFN-γ release)
11 | CC(O)[C@@H](NC(=O)N[C@@H](CC(N)=O)c1nc([C@@H](N)CO)no1)C(=O)O (stereo partly shown) [Compound 20] |  | A (more than 70% rescue of IFN-γ release)
12 | CC(O)[C@H](NC(=O)N[C@@H](CC(N)=O)c1nc(C2(N)CCCC2)no1)C(=O)O (stereo partly shown) [Compound 25] |  | C (less than 50% rescue of IFN-γ release)
13 | CC(O)[C@H](NC(=O)N[C@H](c1nc([C@@H](N)CO)no1)C(C)C)C(=O)O (stereo partly shown) [Compound 9] |  | C (less than 50% rescue of IFN-γ release)
14 | CCCCCCNC(=O)C[C@H](NC(=O)N[C@H](C(=O)O)C(C)O)c1nc([C@@H](N)CO)no1 (stereo partly shown) [Compound 10] |  | C (less than 50% rescue of IFN-γ release)
15 | CC(O)[C@H](NC(=O)N[C@@H](CC(N)=O)c1nc([C@@H](N)Cc2ccc(O)cc2)no1)C(=O)O (stereo partly shown) [Compound 5] |  | A (more than 70% rescue of IFN-γ release)
16 | CCC(C)[C@H](NC(=O)N[C@H](C(=O)O)[C@@H](C)O)c1nc([C@@H](N)CO)no1 (stereo partly shown) [Compound 27] |  | A (more than 70% rescue of IFN-γ release)
17 | NCCCC[C@H](N)c1noc([C@H](CCC(N)=O)NC(=O)N[C@@H](CO)C(=O)O)n1 [Compound 12] |  | B (rescue of IFN-γ release ranges from 50% to 69.9%)
18 | N=C(N)NCCC[C@H](N)c1noc([C@H](CC(=O)O)NC(=O)N[C@@H](CO)C(=O)O)n1 [Compound 16] |  | B (rescue of IFN-γ release ranges from 50% to 69.9%)
19 | NCCCC[C@H](NC(=O)N[C@@H](CC(N)=O)c1nc([C@@H](N)CO)no1)C(=O)O [Compound 4] |  | B (rescue of IFN-γ release ranges from 50% to 69.9%)
